“And” between values parts separate entries of the source, which are not always exact repeats. Equal entries are not always repeated.
Assays:
[1] = Liquid; for mass density: 94.64 kPa, Vibrating tube method; for vapor or sublimation pressure: Ebulliometric method (Recirculating still)
[2] = refractive index (Na D-line) (dimensionless); conditions: 94.64 kPa, Liquid, Standard Abbe refractometry
[3] = xn = mol fraction of the nth substance listed; conditions: 94.64 kPa, Liquid, Vibrating tube method
[4] = refractive index (Na D-line) (dimensionless); xn = mol fraction of the nth substance listed; conditions: 94.64 kPa, Liquid, Standard Abbe refractometry

CC(O)CO (centres undefined) [1,2-propanediol]
Conditions | mass density [kg/m3] | refractive index | vapor or sublimation pressure
[1], 293.15 K | 1036.25 | – | –
[1], 298.15 K | 1032.61 | – | –
[1], 303.15 K | 1028.93 | – | –
[1], 308.15 K | 1025.19 | – | –
[1], 313.15 K | 1021.42 | – | –
[1], 318.15 K | 1017.65 | – | –
[1], 389.39 K | – | – | 6.67 kPa
[1], 396.95 K | – | – | 10 kPa
[1], 402.95 K | – | – | 13.33 kPa
[1], 408.6 K | – | – | 16.61 kPa
[1], 412.95 K | – | – | 19.96 kPa
[1], 413.23 K | – | – | 19.99 kPa
[1], 417.15 K | – | – | 23.34 kPa
[1], 421.2 K | – | – | 26.62 kPa
[1], 421.21 K | – | – | 26.66 kPa
[1], 424.5 K | – | – | 30 kPa
[1], 427.16 K | – | – | 33.33 kPa
[1], 427.23 K | – | – | 33.57 kPa
[1], 429.55 K | – | – | 36.61 kPa
[1], 432.05 K | – | – | 40.01 kPa and 39.99 kPa
[1], 433.7 K | – | – | 43.33 kPa
[1], 436.07 K | – | – | 46.66 kPa
[1], 437.77 K | – | – | 50 kPa
[1], 439.74 K | – | – | 53.25 kPa
[1], 441.27 K | – | – | 56.74 kPa
[1], 443.15 K | – | – | 59.99 kPa
[2], 293.15 K | – | 1.43219 | –
[2], 298.15 K | – | 1.4303 | –
[2], 303.15 K | – | 1.42921 | –
[2], 308.15 K | – | 1.42746 | –
[2], 313.15 K | – | 1.42566 | –
[2], 318.15 K | – | 1.42386 | –

CC(O)CO (centres undefined) [1,2-propanediol] + OCCCO
x1 = 1
Conditions | mass density, [3] [kg/m3] | refractive index, [4]
293.15 K | 1036.25 | 1.43219
298.15 K | 1032.61 | 1.4303
303.15 K | 1028.93 | 1.42921
308.15 K | 1025.19 | 1.42746
313.15 K | 1021.42 | 1.42566
318.15 K | 1017.65 | 1.42386

OCCCO [propan-1,3-diol]
Conditions | mass density [kg/m3] | refractive index | vapor or sublimation pressure
[1], 293.15 K | 1052.75 | – | –
[1], 298.15 K | 1049.67 | – | –
[1], 303.15 K | 1046.55 | – | –
[1], 308.15 K | 1043.45 | – | –
[1], 313.15 K | 1040.32 | – | –
[1], 318.15 K | 1037.18 | – | –
[1], 414.2 K | – | – | 6.65 kPa and 6.67 kPa
[1], 420.8 K | – | – | 9.93 kPa
[1], 427.55 K | – | – | 13.33 kPa
[1], 427.6 K | – | – | 13.47 kPa
[1], 433.9 K | – | – | 16.75 kPa
[1], 438.05 K | – | – | 19.99 kPa
[1], 441.95 K | – | – | 23.46 kPa
[1], 445.3 K | – | – | 26.66 kPa
[1], 448.65 K | – | – | 30.22 kPa
[1], 451.65 K | – | – | 33.22 kPa
[1], 453.15 K | – | – | 33.33 kPa
[1], 454.65 K | – | – | 36.69 kPa
[1], 457.45 K | – | – | 39.99 kPa
[1], 457.49 K | – | – | 40.04 kPa
[1], 459.85 K | – | – | 43.37 kPa
[1], 461.95 K | – | – | 46.67 kPa and 46.66 kPa
[1], 463.95 K | – | – | 49.97 kPa
[1], 465.45 K | – | – | 53.24 kPa
[2], 293.15 K | – | 1.43932 | –
[2], 298.15 K | – | 1.43796 | –
[2], 303.15 K | – | 1.43665 | –
[2], 308.15 K | – | 1.43523 | –
[2], 313.15 K | – | 1.43385 | –
[2], 318.15 K | – | 1.43255 | –

OCCCO [propan-1,3-diol] + CC(O)CO
Conditions | mass density, [3] [kg/m3] | refractive index, [4]
293.15 K, x2 = 0 | 1052.75 | 1.43932
293.15 K, x2 = 0.0985 | 1051.85 | 1.43907
293.15 K, x2 = 0.2023 | 1050.9 | 1.43879
293.15 K, x2 = 0.3015 | 1049.75 | 1.43838
293.15 K, x2 = 0.3961 | 1048.38 | 1.4378
293.15 K, x2 = 0.5009 | 1046.9 | 1.43695
293.15 K, x2 = 0.5961 | 1045.18 | 1.436
293.15 K, x2 = 0.6965 | 1043.35 | 1.43508
293.15 K, x2 = 0.7974 | 1041.33 | 1.4342
293.15 K, x2 = 0.8985 | 1038.71 | 1.4331
298.15 K, x2 = 0 | 1049.67 | 1.43796
298.15 K, x2 = 0.0985 | 1048.71 | 1.4376
298.15 K, x2 = 0.2023 | 1047.71 | 1.43721
298.15 K, x2 = 0.3015 | 1046.51 | 1.43671
298.15 K, x2 = 0.3961 | 1045.09 | 1.43612
298.15 K, x2 = 0.5009 | 1043.57 | 1.43533
298.15 K, x2 = 0.5961 | 1041.79 | 1.43455
298.15 K, x2 = 0.6965 | 1039.9 | 1.43364
298.15 K, x2 = 0.7974 | 1037.77 | 1.43275
298.15 K, x2 = 0.8985 | 1035.15 | 1.43161
303.15 K, x2 = 0 | 1046.55 | 1.43665
303.15 K, x2 = 0.0985 | 1045.54 | 1.43619
303.15 K, x2 = 0.2023 | 1044.49 | 1.43572
303.15 K, x2 = 0.3015 | 1043.23 | 1.43521
303.15 K, x2 = 0.3961 | 1041.76 | 1.43459
303.15 K, x2 = 0.5009 | 1040.18 | 1.4339
303.15 K, x2 = 0.5961 | 1038.34 | 1.43318
303.15 K, x2 = 0.6965 | 1036.39 | 1.4321
303.15 K, x2 = 0.7974 | 1034.25 | 1.4311
303.15 K, x2 = 0.8985 | 1031.52 | 1.43017
308.15 K, x2 = 0 | 1043.45 | 1.43523
308.15 K, x2 = 0.0985 | 1042.36 | 1.43478
308.15 K, x2 = 0.2023 | 1041.24 | 1.43424
308.15 K, x2 = 0.3015 | 1039.93 | 1.43377
308.15 K, x2 = 0.3961 | 1038.41 | 1.43324
308.15 K, x2 = 0.5009 | 1036.78 | 1.43241
308.15 K, x2 = 0.5961 | 1034.87 | 1.43161
308.15 K, x2 = 0.6965 | 1032.85 | 1.43076
308.15 K, x2 = 0.7974 | 1030.65 | 1.42967
308.15 K, x2 = 0.8985 | 1027.85 | 1.42858
313.15 K, x2 = 0 | 1040.32 | 1.43385
313.15 K, x2 = 0.0985 | 1039.16 | 1.4333
313.15 K, x2 = 0.2023 | 1037.97 | 1.43276
313.15 K, x2 = 0.3015 | 1036.61 | 1.43207
313.15 K, x2 = 0.3961 | 1035.02 | 1.43145
313.15 K, x2 = 0.5009 | 1033.34 | 1.43061
313.15 K, x2 = 0.5961 | 1031.36 | 1.43
313.15 K, x2 = 0.6965 | 1029.27 | 1.42906
313.15 K, x2 = 0.7974 | 1027.04 | 1.42818
313.15 K, x2 = 0.8985 | 1024.18 | 1.42699
318.15 K, x2 = 0 | 1037.18 | 1.43255
318.15 K, x2 = 0.0985 | 1035.96 | 1.43195
318.15 K, x2 = 0.2023 | 1034.7 | 1.43131
318.15 K, x2 = 0.3015 | 1033.26 | 1.43057
318.15 K, x2 = 0.3961 | 1031.62 | 1.42992
318.15 K, x2 = 0.5009 | 1029.89 | 1.42921
318.15 K, x2 = 0.5961 | 1027.83 | 1.42848
318.15 K, x2 = 0.6965 | 1025.68 | 1.42752
318.15 K, x2 = 0.7974 | 1023.38 | 1.42653
318.15 K, x2 = 0.8985 | 1020.43 | 1.42545
